Reference: patent US7537912B2, “Methods of measuring luminogenic activity with a protected coelenterazine” (Promega Corporation, priority 2001, dated 2009)

How the values were obtained:
Renilla luciferase = molecular target: T1, Renilla luciferase (Renilla reniformis, UniProt P27652); assay: Localization of luminescence, media only wells with and without purified Renilla luciferase; assay type: biochemical; conditions: Table E, no cells, 100 μM substrate
T1 construct: purchased Chemicon Corp
T1 sequence (P27652 1-311): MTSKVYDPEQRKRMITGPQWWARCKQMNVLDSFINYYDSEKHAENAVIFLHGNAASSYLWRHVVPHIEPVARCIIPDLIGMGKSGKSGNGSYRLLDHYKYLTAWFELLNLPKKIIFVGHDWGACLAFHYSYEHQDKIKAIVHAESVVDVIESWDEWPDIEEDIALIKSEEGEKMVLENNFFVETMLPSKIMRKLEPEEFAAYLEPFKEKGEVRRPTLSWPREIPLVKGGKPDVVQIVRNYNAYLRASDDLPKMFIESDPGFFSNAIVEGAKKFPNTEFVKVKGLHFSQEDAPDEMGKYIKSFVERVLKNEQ
Experimental: (§1) CHO hRL25 cells (which express luciferase) (4.5 mL of (7.5×10^5 cells)/(plate/5×10^9 cells/mL) were resuspended in 5.5 mL media and put into 96 well plates. The next day, the cells were aspirated, washed with 100 μL PBS, and then aspirated again. 100 μL of media (F12) containing no substrate (background) was then added to wells containing no cells. These wells were then read for 1 sec/well with an ORION Luminometer (BERTHHOLD) (Table E; Bkg).
(§2) Similarly, 100 μL portions of media containing 100 μM of either POM-h or coelenterazine-h were placed in wells containing cells or wells alone. These wells were then read for 1 sec/well with an ORION Luminometer (BERTHHOLD) immediately following (coelenterazine) and 10 minutes post-addition (POM-h) (Table E; Subs).
(§3) Thereafter, 0.5 μL of purified Renilla luciferase (3.96×10^−5 M/Reaction (Chemicon) was added to each well. All wells were then read for 1 second/well (Table E; RL).

[1] = test system: CHO cells transfected with pHRL CMV (Renilla luciferase); assay: Live cell assay, signal to background ratio; assay type: cell-based, Chinese hamster; conditions: for Change of luminescence from cell samples after Tergitol NP-9 was added: TERGITOL NP-9 final concentration 1%
From the text: In these examples, the behavior of luminophores and protected luminophores were examined in situ in a variety of cultured cells. Cells were transiently or stably transfected with a plasmid encoding Renilla luciferase. Luminescence was compared between cells contacted with a coelenterazine (VI or VII) or a protected luminophore (IX, XV, or XVI).
Chinese hamster ovary (CHO) cells were maintained in Ham's F-12 media supplemented with 10% fetal bovine serum (FBS). HeLa and 293 cells were maintained in DMEM media supplemented with 10% fetal calf serum (FCS). All cell lines were grown at 37° C. in the presence of 5% CO2. Cells were transiently transfected with either 15 μg pUC19 or pRL-Control plasmid (PROMEGA CORPORATION, E6271 ) at a concentration of 7.5×10^5 cells per 10 cm plate using Tfx-20 (PROMEGA CORP., E2391) or TransFast™ Transfection Reagent (PROMEGA CORP., E2431). The following day, transfections were pooled and split into 48 wells of a white DYNEX 96-well luminometer plate.
The cells thus prepared were then subjected to a variety of assays. Reaction buffers for these assays were prepared using either DMEM or F12 media with FBS or FCS (10% by volume). Coelenterazine VI, coelenterazine VII or one of protected luminophores IX, XV, or XVI was then added to yield a concentration of 60 μM. These buffers were then used for luminescence measurements in the following assays. Luminescence was measured using an ORION luminometer.
Media was aspirated from the cells after 24 or 48 hours following transfection. The cells were washed with 100 μl per well of 1× phosphate buffered saline. Reaction buffer containing either VI or IX was titrated into complete media by half-logs, and these solutions were added to empty wells and to wells containing transfected cells. Luminescence was measured 5 minutes after media replacement. Immediately following the initial measurement, TERGITOL NP-9 (SIGMA CHEMICALS) was added to a final concentration of 1%. Samples were mixed for approximately 15 seconds, and luminescence was integrated over 1 second per well. The luminescence measured from cell samples increased after Tergitol NP-9 was added to samples containing coelenterazine VI or VII.
Autoluminescence was taken as the luminescence measured for samples containing medium and serum alone. The luminescence divided by the autoluminescence was taken as the signal to background ratio (S/B).

[2] = test system: CHO hRL25 cells (which express luciferase); assay: Localization of luminescence, cells expressing luciferase; assay type: cell-based, Chinese hamster; conditions: 100 μM substrate; for RL (RLU): after addition of purified Renilla luciferase; for Subs (RLU): before exogenous luciferase
Experimental: as §1, §2, §3
(§4) Similarly, 100 μL portions of media (F12) containing 100 μM of either coelenterazine or triacetyl coelenterazine were placed in wells containing cells or wells alone. These wells were then read for 1 sec/well with an ORION Luminometer (BERTHHOLD) immediately following (coelenterazine) and 4 minutes post-addition (triacetyl coelenterazine) (Table F; Subs).
(§5) Thereafter, 0.5 μL of purified Renilla luciferase (3.96×10^−5 M/Reaction (Chemicon) was added to each well. All wells were then read for 1 second/well (Table F; RL).

[3] = test system: Untransfected CHO (which do not naturally produce luciferase); assay: Localization of luminescence, untransfected cells; assay type: cell-based, Chinese hamster; conditions: Table F, 100 μM substrate; for RL (RLU): after addition of purified Renilla luciferase; for Subs (RLU): before exogenous luciferase
Experimental: as §4, §5

[4] = Table F, hRL2 cells, read immediately (coelenterazine) or 4 minutes post-addition (triacetyl coelenterazine)

O=c1c(Cc2ccccc2)nc2c(Cc3ccccc3)[nH]c(-c3ccc(O)cc3)cn1-2 [compound VII, coelenterazine-h, reference compound]
RL (RLU) (Renilla luciferase; after addition of purified Renilla luciferase): 278467 RLU
Subs (RLU) (Renilla luciferase; before luciferase): 763 RLU
Change of luminescence from cell samples after Tergitol NP-9 was added [1]: increased
RL (RLU) ([2]; Table E, hRL25 cells): 331381 RLU
Subs (RLU) ([2]; Table E, hRL25 cells, read immediately (coelenterazine-h) or 10 minutes post-addition (POM-h)): 39342 RLU

CC(=O)Oc1ccc(Cc2nc3c(Cc4ccccc4)nc(-c4ccc(OC(C)=O)cc4)cn3c2OC(C)=O)cc1 [compound IX, triacetyl-coelenterazine]
Change of luminescence from cell samples after Tergitol NP-9 was added [1]: dropped almost to the level of autoluminescence
Ratios - compound/reference Luminesc. ([1]; reference compound VI, CHO cells transfected with pHRL CMV, 5 minutes after media replacement): 1.5
Ratios - compound/reference S/N ([1]; reference compound VI, luminescence divided by autoluminescence): 9.1
Ratios - compound/reference Autolum. ([1]; reference compound VI, medium and serum alone): 0.2
RL (RLU) [3]: 8910 RLU
Subs (RLU) [3]: 864 RLU
RL (RLU) ([2]; Table F, hRL2 cells): 229111 RLU
Subs (RLU) [2, 4]: 224353 RLU

coelenterazine [compound VI, reference compound]
Change of luminescence from cell samples after Tergitol NP-9 was added [1]: increased
RL (RLU) [3]: 11930147 RLU
Subs (RLU) [3]: 6253 RLU
RL (RLU) ([2]; Table F, hRL2 cells): 110008374 RLU
Subs (RLU) [2, 4]: 139842 RLU
